Laboratory results reported in patent US9597407B2, “Targeted antimicrobial moieties” (C3 Jian, Inc., priority 2009, dated 2017).
Entries after “also recorded” stand apart in the source; their conditions may differ.

The substances below were run on bacteria (assay: Binding of targeting peptides to microorganisms (Table 3)). Conditions: microorganism bound by the targeting peptide; binding in aqueous buffers chosen by peptide solubility, preferably 1x PBS.

Row | Substance | Target(s)
1 | PF-295 (NIQVYESECGNYIFKKSDESFLIDIFDKNGTH; Peptide with targeting and/or antimicrobial activity) | C. difficile
2 | PF-206 (KLRSASKKSLQEKSCGIMPEKPAG; Peptide with targeting and/or antimicrobial activity) | M. luteus; also recorded: C. albicans; also recorded: C. jeikeium; also recorded: C. jejuni
3 | PF-328 (NGNEKAFSEVENLVK; Peptide with targeting and/or antimicrobial activity) | S. mutans
4 | PF-159 (TMAFVEKAQLRVPVGDDLPV; Peptide with targeting and/or antimicrobial activity) | S. epidermidis
5 | PF-194 (MKGNKLATAHEQPVKNSAPPL; Peptide with targeting and/or antimicrobial activity) | C. jeikeium
6 | PF-364 (LVNGIKI; Peptide with targeting and/or antimicrobial activity) | S. epidermidis; also recorded: B. fragilis; also recorded: P. aeruginosa; also recorded: C. jeikeium; also recorded: C. jejuni
7 | MLTSRKKRLKKIVEEQNKKDESI [PF-336] | S. mutans; also recorded: E. coli
8 | PF-219 (FLALAVIAGLFKVILIYAAPYLK; Peptide with targeting and/or antimicrobial activity) | S. epidermidis; also recorded: M. luteus; also recorded: P. aeruginosa; also recorded: A. baumannii
9 | PF-231 (AVRDFKKSVREEDEAASLNSPRTIDAQVKTSESTSVKS; Peptide with targeting and/or antimicrobial activity) | S. mutans
10 | PF-329 (IGILFDKSVRKY; Peptide with targeting and/or antimicrobial activity) | S. epidermidis
11 | PF-254 (FIYGVGFVPHFWLWKWLFSPWIAWPLMLLGYYIWFLT; Peptide with targeting and/or antimicrobial activity) | S. epidermidis; also recorded: M. luteus; also recorded: P. aeruginosa; also recorded: A. baumannii
12 | PF-187 (EIQKIAKGVSGQVYGPSRQITISKKR; Peptide with targeting and/or antimicrobial activity) | S. epidermidis and M. luteus and E. coli and MRSA
13 | PF-267 (SDDKRTD; Peptide with targeting and/or antimicrobial activity) | M. luteus

Same assay, conditions: microorganism the targeting peptide binds; binding in aqueous buffers that varied with peptide solubility, preferably 1x PBS

Row | Substance | Target(s)
14 | 1T-219 (RNINVSATFITEKSLV; Peptide with targeting and/or antimicrobial activity) [Peptide 1T-219] | S. sanguinis
15 | 1T-264 (LEGKFYMAEDFDKTPECFKDYV; Peptide with targeting and/or antimicrobial activity) [Peptide 1T-264] | S. sanguinis
16 | PF-062 (MKKKRINNDILGRMIYSSSIDKRNLYNLKYYE; Peptide with targeting and/or antimicrobial activity) | S. epidermidis and M. luteus and E. coli and P. aeruginosa and MRSA and S. pneumoniae and E. faecalis and C. jeikeium
17 | 1T-195 (AASGFTYCASNGVWHPY; Peptide with targeting and/or antimicrobial activity) [Peptide 1T-195] | S. mutans
18 | TT-309 (EPLPLTKYDKKDTEMKKVFKEILAGKVGYEKEEE; Peptide with targeting and/or antimicrobial activity) | F. nucleatum
19 | 1T-294 (YDKIADGVFKIGKRGVL; Peptide with targeting and/or antimicrobial activity) [Peptide 1T-294] | T. denticola

Same assay, conditions: peptide binding in aqueous buffers that varied depending on peptide solubility; preferably 1x PBS

Row | Substance | Target(s) (microorganism bound by the targeting peptide) | Target(s) (microorganisms bound by the targeting peptide)
20 | PF-679 (CRARFIRR; Peptide with targeting and/or antimicrobial activity) | S. mutans; also recorded: E. coli | 
21 | PF-412 (TSGWLGQLEQ; Peptide with targeting and/or antimicrobial activity) |  | M. luteus; also recorded: E. coli; also recorded: C. albicans; also recorded: C. jeikeium; also recorded: C. jejuni
22 | PF-785 (MRPQHSPAGKAFVVKKITHEQS; Peptide with targeting and/or antimicrobial activity) | Mycobacteria spp. | 
23 | PF-508 (VSTFGKVVKVVDEK; Peptide with targeting and/or antimicrobial activity) |  | S. mutans
24 | PF-489 (KVDRVSTTITEKIK; Peptide with targeting and/or antimicrobial activity) |  | S. mutans
25 | PF-641 (SWKCHHLAIGGSWKCHHLAI; Peptide with targeting and/or antimicrobial activity) | S. epidermidis and M. luteus and E. coli and C. albicans and MRSA and E. faecalis and C. jeikeium and C. jejuni | 
26 | PF-731 (RHKLIRLPLSESVFCFLNNPKI; Peptide with targeting and/or antimicrobial activity) | L. pneumophila | 
27 | VYSFLYVLVIVRKLLSMKKRIERL [PF-499] |  | S. mutans; also recorded: E. coli
28 | PF-711 (KTAGPTGTIYKTN; Peptide with targeting and/or antimicrobial activity) | S. mutans | 
29 | PF-795 (ALHKSGIQVIADWVPDQIYN; Peptide with targeting and/or antimicrobial activity) | S. mutans | 
30 | PF-732 (DRPSQTTHHTLSSSRITGPS; Peptide with targeting and/or antimicrobial activity) | E. coli | 

Same assay, conditions: peptide binding in aqueous buffers varied by peptide solubility; preferably 1x PBS

Row | Substance | Target(s) (microorganism bound by the targeting peptide)
31 | 1T-141 (KKFIILLFILVQGLIFSATKTLSDIIAL; Peptide with targeting and/or antimicrobial activity) [Peptide 1T-141] | F. nucleatum; also recorded: P. gingivalis; also recorded: S. epidermidis; also recorded: S. gordonii; also recorded: S. mitis; also recorded: S. mutans; also recorded: S. oralis; also recorded: S. sanguinis
32 | 1T-22 (VPLDDGTRRPEVARNRDKDRED; Peptide with targeting and/or antimicrobial activity) [Peptide 1T-22] | S. epidermidis; also recorded: P. aeruginosa
33 | 1T-28 (VSRDEAMEFIDREWTTLQPAGKSHA; Peptide with targeting and/or antimicrobial activity) [Peptide 1T-28] | P. aeruginosa
34 | 1T-43 (DRCLSVLSWSPPKVSPLI; Peptide with targeting and/or antimicrobial activity) [Peptide 1T-43] | C. jeikium; also recorded: P. aeruginosa
35 | 1T-7 (SQRIIEPVKSPQPYPGFSVS; Peptide with targeting and/or antimicrobial activity) [Peptide 1T-7] | M. xanthus
36 | 1T-32 (VSFLAGWLCLGLAAWRLGNA; Peptide with targeting and/or antimicrobial activity) [Peptide 1T-32] | S. mutans
37 | 1T-71 (KIDTNQWPPNKEG; Peptide with targeting and/or antimicrobial activity) [Peptide 1T-71] | P. aeruginosa
38 | 1T-48 (KLQVHHGRATHTLLLQPPLCAPGTIR; Peptide with targeting and/or antimicrobial activity) [Peptide 1T-48] | S. aureus; also recorded: S. epidermidis; also recorded: C. jeikeium; also recorded: C. xerosis; also recorded: C. striatum; also recorded: P. aeruginosa
39 | 1T-79 (FGTPWSITNFWKKNFNDRPDFDSDRRRY; Peptide with targeting and/or antimicrobial activity) [Peptide 1T-79] | S. pneumoniae
40 | 1T-15 (DVILRVEAQ; Peptide with targeting and/or antimicrobial activity) [Peptide 1T-15] | S. mutans
41 | 1T-113 (HGAHQRTGQRLHHHRGRTVSGCRQNPVAGVDPDEHR; Peptide with targeting and/or antimicrobial activity) [Peptide 1T-113] | S. mitis
42 | 1T-62 (GCKGCAQRDPCAEPEPYFRLR; Peptide with targeting and/or antimicrobial activity) [Peptide 1T-62] | S. epidermidis; also recorded: P. aeruginosa
43 | 1T-89 (HEDDKRRGMSVEVLGFEVVQHEE; Peptide with targeting and/or antimicrobial activity) [Peptide 1T-89] | S. mitis; also recorded: S. mutans
44 | 1T-45 (WTKPSFTDLRLGFEVTLYFANR; Peptide with targeting and/or antimicrobial activity) [Peptide 1T-45] | S. aureus; also recorded: S. epidermidis; also recorded: C. striatum; also recorded: P. aeruginosa
45 | 1T-159 (IFSLHHFALICSEMGTFAVSKRAKYKWEVL; Peptide with targeting and/or antimicrobial activity) [Peptide 1T-159] | P. gingivalis
46 | 1T-46 (FSFKQRVMFRKEVERLR; Peptide with targeting and/or antimicrobial activity) [Peptide 1T-46] | S. aureus; also recorded: S. epidermidis; also recorded: C. jeikeium; also recorded: C. xerosis; also recorded: C. striatum; also recorded: P. aeruginosa
47 | 1T-27 (ALFVSLEQFLVVVAKSVFALCHSGTLS; Peptide with targeting and/or antimicrobial activity) [Peptide 1T-27] | S. mutans; also recorded: S. aureus; also recorded: S. epidermidis; also recorded: C. jeikeium; also recorded: C. xerosis; also recorded: C. striatum; also recorded: P. aeruginosa
48 | 1T-126 (QGLARPVLRRIPL; Peptide with targeting and/or antimicrobial activity) [Peptide 1T-126] | S. gordonii; also recorded: S. mitis; also recorded: S. mutans
